These results are taken from PMC7450057, “Enhancing intracellular accumulation and target engagement of PROTACs with reversible covalent chemistry” (Nature Communications, 2020).

Values joined by “and” are separate entries in the source; they are usually repeats but may differ in a detail not shown here. Identical values can stand only once.

For one data set, the system named is MOLM-14 cells. Briefly: AlamarBlue cell viability assay, MOLM-14. The settings on record: Supplementary Figure 7, replicates.
The next data set deals with BTK (Homo sapiens, UniProt Q06187). Description: BTK degradation in MOLM-14 cells (western blot). The following applies: MOLM-14 cells; for Degradation at 200 nM (percentage of BTK degradation): 24 h incubation. The class given is cell-based. Details: endogenous in cells; host or cells: MOLM-14.
A further data set has as its target T1, NanoLuc-CRBN fusion (Homo sapiens, UniProt Q96SW2).
T1 construct: host or cells: HEK 293T/17
Description: NanoBRET CRBN in-cell target engagement assay. The settings on record: for NanoBRET(%): Figure 3h, replicates; for IC50: HEK-293 cells, CRBN tracer 0.5 µM, triplicates, read-out: CRBN target engagement IC50,TE. The format is cell-based. As for the experimental part: The target engagement assay for BTK or CRBN was from Promega (BTK kit, Cat. No. N2500; CRBN kit, Cat. No. CS1810C136) and was performed according to the manufacture’s instruction with some modifications. […] After 2 h incubation, the 3X Nano-Glo® Substrate with NanoLuc® extracellular inhibitor were added to cells and developed for 3 min at room temperature. BRET signals were collected using a BioTek SYNERGY H1 microplate reader equipped with a 450/80-nm BP filter for donor emission and a 610-nm LP filter for acceptor emission. BRET Ratio was calculated with the equation: [(Acceptor sample/Donor sample)–(Acceptor no tracer control/Donor no tracer control)] × 1000. The IC50 of the compound against its BTK or CRBN tracer was calculated using GraphPad Prism software.
A general note: Bioluminescence resonance energy transfer reports proximity on the nanometre scale.

BTK, sequence (Q06187 whole entry, the tested form may be a part): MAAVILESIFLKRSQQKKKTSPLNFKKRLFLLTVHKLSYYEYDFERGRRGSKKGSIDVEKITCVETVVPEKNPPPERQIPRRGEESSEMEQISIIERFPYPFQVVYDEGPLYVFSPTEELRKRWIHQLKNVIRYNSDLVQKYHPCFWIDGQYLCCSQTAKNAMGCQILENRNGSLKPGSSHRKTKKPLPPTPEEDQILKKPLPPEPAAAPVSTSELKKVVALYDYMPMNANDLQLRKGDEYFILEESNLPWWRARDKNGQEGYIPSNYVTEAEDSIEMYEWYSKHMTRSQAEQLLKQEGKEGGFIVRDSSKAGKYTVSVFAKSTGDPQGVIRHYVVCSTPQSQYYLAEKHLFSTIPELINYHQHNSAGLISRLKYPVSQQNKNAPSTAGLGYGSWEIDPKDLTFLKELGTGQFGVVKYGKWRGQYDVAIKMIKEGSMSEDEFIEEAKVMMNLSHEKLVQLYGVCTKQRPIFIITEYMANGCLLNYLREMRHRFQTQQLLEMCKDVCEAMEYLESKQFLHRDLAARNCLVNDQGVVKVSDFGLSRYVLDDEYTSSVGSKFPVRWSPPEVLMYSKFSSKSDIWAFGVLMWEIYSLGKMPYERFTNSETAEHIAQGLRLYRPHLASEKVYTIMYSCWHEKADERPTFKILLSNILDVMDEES
T1 sequence (Q96SW2 whole entry, the tested form may be a part): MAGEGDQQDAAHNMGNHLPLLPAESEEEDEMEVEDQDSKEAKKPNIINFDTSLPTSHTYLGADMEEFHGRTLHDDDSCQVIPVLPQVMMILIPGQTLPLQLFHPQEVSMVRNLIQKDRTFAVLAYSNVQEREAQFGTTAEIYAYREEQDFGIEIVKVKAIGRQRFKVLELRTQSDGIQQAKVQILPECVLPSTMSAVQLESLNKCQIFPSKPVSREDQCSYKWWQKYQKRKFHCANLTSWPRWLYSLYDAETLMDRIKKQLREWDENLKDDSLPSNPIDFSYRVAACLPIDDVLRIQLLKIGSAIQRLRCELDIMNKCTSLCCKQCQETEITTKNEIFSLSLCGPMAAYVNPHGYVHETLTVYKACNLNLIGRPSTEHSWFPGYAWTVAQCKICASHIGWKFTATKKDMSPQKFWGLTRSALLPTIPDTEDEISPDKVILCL
T1 sequence (Q16531 whole entry partner, the tested form may be a part): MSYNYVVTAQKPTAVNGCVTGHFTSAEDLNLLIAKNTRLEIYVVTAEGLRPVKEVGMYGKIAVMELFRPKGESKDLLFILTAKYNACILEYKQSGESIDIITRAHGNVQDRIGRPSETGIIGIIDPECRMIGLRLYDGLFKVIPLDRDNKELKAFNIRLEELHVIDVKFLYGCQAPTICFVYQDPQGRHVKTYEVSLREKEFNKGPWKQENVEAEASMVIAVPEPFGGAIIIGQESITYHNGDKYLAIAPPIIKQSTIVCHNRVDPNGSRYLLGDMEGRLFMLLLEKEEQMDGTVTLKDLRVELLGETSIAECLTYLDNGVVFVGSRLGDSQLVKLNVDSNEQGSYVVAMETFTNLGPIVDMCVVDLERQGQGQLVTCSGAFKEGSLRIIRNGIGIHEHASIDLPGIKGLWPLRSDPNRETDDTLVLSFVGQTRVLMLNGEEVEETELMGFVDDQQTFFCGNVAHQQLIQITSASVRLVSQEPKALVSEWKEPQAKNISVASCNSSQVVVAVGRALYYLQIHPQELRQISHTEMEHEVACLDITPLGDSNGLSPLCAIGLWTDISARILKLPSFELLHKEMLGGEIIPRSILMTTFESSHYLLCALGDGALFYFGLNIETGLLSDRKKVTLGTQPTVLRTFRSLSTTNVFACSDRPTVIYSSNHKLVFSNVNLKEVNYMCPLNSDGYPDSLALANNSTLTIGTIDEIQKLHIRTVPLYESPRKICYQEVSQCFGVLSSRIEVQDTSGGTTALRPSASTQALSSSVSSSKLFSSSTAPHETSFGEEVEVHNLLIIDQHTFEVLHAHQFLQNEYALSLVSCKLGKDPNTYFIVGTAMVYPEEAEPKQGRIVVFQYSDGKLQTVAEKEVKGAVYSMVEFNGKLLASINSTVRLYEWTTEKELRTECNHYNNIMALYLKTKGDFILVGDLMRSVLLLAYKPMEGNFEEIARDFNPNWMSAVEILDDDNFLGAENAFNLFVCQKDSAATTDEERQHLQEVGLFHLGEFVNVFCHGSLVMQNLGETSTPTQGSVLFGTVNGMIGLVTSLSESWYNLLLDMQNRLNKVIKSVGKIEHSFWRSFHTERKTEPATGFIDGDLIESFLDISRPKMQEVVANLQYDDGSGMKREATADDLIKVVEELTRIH

Take `CN(CCCNc1cccc2c1C(=O)N(C1CCC(=O)NC1=O)C2=O)C(C)(C)C=C(C#N)C(=O)N1CCCC(n2nc(-c3ccc(Oc4ccccc4)cc3)c3c(N)ncnc32)C1` (centres unmarked) [RC-8]: the “Cell viability, MOML-14” value was 17.5563 and 16.7069 and 17.8914 and 20.4239 and 19.1771 in the data set with MOLM-14 cells (drug concentration 1.00E-05 M); 123.954 and 125.216 and 128.45 and 118.008 and 115.826 in the data set with MOLM-14 cells (drug concentration 1.60E-08 M); 51.2117 and 59.1288 and 59.5652 and 52.2481 and 61.4899 with MOLM-14 cells (drug concentration 2.00E-06 M); 109.039 and 133.593 and 120.962 and 127.936 and 128.38 in the data set on MOLM-14 cells (drug concentration 3.20E-09 M); 97.748 and 111.696 and 131.871 and 99.439 and 92.5349 with MOLM-14 cells (drug concentration 4.00E-07 M); 132.113 and 115.156 and 99.1818 and 117.969 and 130.757 in the data set with MOLM-14 cells (drug concentration 6.40E-10 M). Besides, the “Cell viability, MOML-14” value with MOLM-14 cells (drug concentration 8.00E-08 M) was 116.239 and 126.011 and 117.112 and 106.966 and 122.419. The “Degradation at 200 nM (percentage of BTK degradation)” value at BTK was 15%.

In the case of `CN(CCOCCNC(=O)CNc1ccc2c(c1)C(=O)N(C1CCC(=O)NC1=O)C2=O)C(C)(C)C=C(C#N)C(=O)N1CCC[C@@H](n2nc(-c3ccc(Oc4ccccc4)cc3)c3c(N)ncnc32)C1` (some centres unmarked) [RC-10], the “Cell viability, MOML-14” value was 6.648 and 2.814 and 5.855 and 1.001 and 2.266 in the data set with MOLM-14 cells (drug concentration 1.00E-05 M); 84.9481 and 73.56 and 76.0529 and 61.3598 and 63.4939 with MOLM-14 cells (drug concentration 1.60E-08 M); 15.1841 and 8.971 and 14.3343 and 7.989 and 11.1237 in the data set with MOLM-14 cells (drug concentration 2.00E-06 M); 88.1209 and 77.847 and 69.5373 and 71.6336 and 68.102 in the data set on MOLM-14 cells (drug concentration 3.20E-09 M); 52.6534 and 38.4514 and 40.831 and 37.0727 and 36.6572 in the data set with MOLM-14 cells (drug concentration 4.00E-07 M); 87.0746 and 98.5269 and 68.2342 and 85.7413 and 74.9197 in the data set on MOLM-14 cells (drug concentration 6.40E-10 M). Moreover, in the data set with MOLM-14 cells (drug concentration 8.00E-08 M), the “Cell viability, MOML-14” value is 70.5949 and 66.9688 and 60.3777 and 66.9311 and 50.1039. Besides, at BTK (indicated doses, 24 h), the “BTK degradation (in words)” value is given as “cannot induce any BTK degradation”.

Take `CN(CCCCNc1cccc2c1C(=O)N(C1CCC(=O)NC1=O)C2=O)C(C)(C)C=C(C#N)C(=O)N1CCCC(n2nc(-c3ccc(Oc4ccccc4)cc3)c3c(N)ncnc32)C1` (centres unmarked) [RC-7]: the “Cell viability, MOML-14” value is 14.5806 and 18.8166 and 13.8981 and 12.7996 and 18.6335 in the data set with MOLM-14 cells (drug concentration 1.00E-05 M); 91.6861 and 127.114 and 140.005 and 143.301 and 145.198 in the data set with MOLM-14 cells (drug concentration 1.60E-08 M); 29.6105 and 35.3113 and 28.8948 and 32.5316 and 40.9787 with MOLM-14 cells (drug concentration 2.00E-06 M); 108.289 and 119.541 and 122.853 and 118.675 and 131.225 in the data set with MOLM-14 cells (drug concentration 3.20E-09 M); 92.6182 and 112.666 and 109.446 and 93.7916 and 129.078 with MOLM-14 cells (drug concentration 4.00E-07 M); 104.877 and 113.673 and 115.995 and 128.978 and 91.4031 in the data set on MOLM-14 cells (drug concentration 6.40E-10 M). The “Cell viability, MOML-14” value with MOLM-14 cells (drug concentration 8.00E-08 M) was 94.8735 and 136.951 and 131.242 and 108.447 and 144.149. The “Degradation at 200 nM (percentage of BTK degradation)” value at BTK was 6%.

Broadly, the IC50 is the concentration that inhibits the measured activity by half. Take `CCCNc1nc(Nc2ccc(C#N)cc2)ncc1C#CCCCNC(=O)[C@H](C)N(C)C(=O)CCCN(C)CCCNC(=O)CCNc1cccc2c1C(=O)N(C1CCC(=O)NC1=O)C2=O` (some centres unmarked) [RNC-FLT3]: the “NanoBRET(%)” value was 48.4243% and 48.1518% and 48.288% on NanoLuc-CRBN fusion (drug concentration 1.00E-05 M); 120.01% and 113.24% and 126.78% at NanoLuc-CRBN fusion (drug concentration 1.60E-08 M); 97.5318% and 86.9073% and 76.2828% on NanoLuc-CRBN fusion (drug concentration 2.00E-06 M); 100.446% and 106.017% at NanoLuc-CRBN fusion (drug concentration 3.20E-09 M); 98.4352% and 83.544% and 119.955% on NanoLuc-CRBN fusion (drug concentration 4.00E-07 M); 117.071% and 115.752% and 114.432% on NanoLuc-CRBN fusion (drug concentration 8.00E-08 M). The IC50 at NanoLuc-CRBN fusion was 10.1 µM.

`CCCNc1nc(Nc2ccc(C#N)cc2)ncc1C#CCCCNC(=O)[C@H](C)N(C)C(=O)/C(C#N)=C/C(C)(C)N(C)CCCNC(=O)CCNc1cccc2c1C(=O)N(C1CCC(=O)NC1=O)C2=O` (some centres unmarked) [RC-FLT3]: the “NanoBRET(%)” value on NanoLuc-CRBN fusion (drug concentration 1.00E-05 M) was 35.9991% and 14.2807% and 25.1399%; at NanoLuc-CRBN fusion (drug concentration 1.60E-08 M), 91.6727% and 89.8569% and 90.7648%; on NanoLuc-CRBN fusion (drug concentration 2.00E-06 M), 22.2416% and 18.9083% and 40.0723%; on NanoLuc-CRBN fusion (drug concentration 3.20E-09 M), 100.385% and 96.7751% and 101.754%; at NanoLuc-CRBN fusion (drug concentration 4.00E-07 M) it was 38.0473% and 34.6413% and 45.5817%; at NanoLuc-CRBN fusion (drug concentration 8.00E-08 M) it was 64.8551% and 66.5991% and 71.8605%. For the same compound, the half-maximal inhibitory concentration (IC50) on NanoLuc-CRBN fusion stood at 0.3 µM.
